{"source": "patent US20060193832A1", "about": "“Use of the sodium iodine symporter to effect uptake of iodine” (priority 2005, published 2006)", "key": {"[1]": {"test_system": "hNIS stable expressing FaDu transfectants", "description": "In Vivo Tumor Growth. […] Twenty-four hours later, cells were trypsinized, washed, and resuspended in PBS. […] After allowing 48 hours for engraftment of tumor cells, 1 mCi of [^131I] iodide was injected intraperitoneally into each mouse. Second, to assess the effects of genetically targeted radiotherapy on established tumors, 5×10^6 stably transfected NIS-expressing FaDu cells or their parental counterparts were injected subcutaneously into both flanks of athymic mice. The tumors were allowed to grow to an average tumor diameter of 5 mm and then 1 mCi of [^131I] iodide was injected intraperitoneally into each mouse. In both experiments, tumor sizes were recorded in three dimensions every 2 days. Average tumor diameters were determined by taking the cube root of tumor width×length×depth. The experiments were terminated when the average tumor diameter exceeded 10 mm. All animal studies were performed in accordance with the Public Health Service policy on Humane Care and Use of Laboratory Animals, the NIH Guide for the Care and Use of Laboratory Animals, and the Animal elfare Act (7 U.S.C. et seq.); the animal use protocol was approved by the Institutional Animal Care and Use Committee (IACUC) of the University of Iowa."}, "[2]": {"test_system": "NIS expressing human tumor xenograft of FaDu carcinoma cells", "conditions": "4.2 Gy delivered to the tumor", "excerpt": "To begin to address this issue, the inventors have established a method to estimate dosimetry based on gamma camera imaging of ^131I uptake and retention using a pinhole collimator. […] Data collected from the pinhole collimator gamma camera imaging has enabled us to calculate doses delivered to tumor xenografts and therefore to perform comparative dosimetry between different isotopes such as ^131I and ^188ReO4—."}, "Ad-NIS infected cells": {"test_system": "Ad-NIS infected cells", "assay": "Iodide retention with recombinant LPO during the efflux period", "type": "cell-based", "conditions": "recombinant LPO present during efflux period, 2 hours of efflux", "source_text": "The inventors are also exploring other novel methods to enhance iodine retention in cells and, to this end, they have examined the effect of lactoperoxidase (LPO) on iodide organification and retention in NIS+ cell populations."}, "[3]": {"test_system": "NIS-expressing tumor tissue", "assay": "Gamma camera imaging of 188ReO4 uptake in Ad-NIS injected tumor bearing mouse", "type": "in vivo", "conditions": "2 hours after systemic administration", "source_text": "As discussed in detail below, the beta particle emitted from ^188Re is more energetic than that of ^131I and can travel a further distance in tissue, thus may be well suited to use in the context of larger tumors that are found in human head and neck cancer."}, "NIS [4]": {"molecular_target": "T1, NIS (Homo sapiens, UniProt Q92911)", "T1 sequence (Q92911 1-643)": "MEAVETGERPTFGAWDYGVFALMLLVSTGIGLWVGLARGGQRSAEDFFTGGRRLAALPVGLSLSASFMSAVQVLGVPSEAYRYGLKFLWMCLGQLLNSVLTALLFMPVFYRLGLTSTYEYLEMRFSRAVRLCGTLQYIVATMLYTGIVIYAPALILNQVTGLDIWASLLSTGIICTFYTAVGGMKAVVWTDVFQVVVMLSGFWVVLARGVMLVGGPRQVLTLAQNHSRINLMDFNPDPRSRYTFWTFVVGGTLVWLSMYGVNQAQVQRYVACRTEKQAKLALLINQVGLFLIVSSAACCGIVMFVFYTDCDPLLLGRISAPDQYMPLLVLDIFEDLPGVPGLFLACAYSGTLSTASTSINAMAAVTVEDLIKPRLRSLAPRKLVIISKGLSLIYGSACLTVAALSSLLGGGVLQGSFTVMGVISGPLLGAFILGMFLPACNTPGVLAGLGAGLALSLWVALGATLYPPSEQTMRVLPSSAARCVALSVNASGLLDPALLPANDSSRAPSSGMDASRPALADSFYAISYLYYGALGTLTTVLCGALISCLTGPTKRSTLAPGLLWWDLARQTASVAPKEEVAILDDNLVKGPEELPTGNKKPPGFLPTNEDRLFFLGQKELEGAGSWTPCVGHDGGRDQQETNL", "conditions": "stably transfected cell lines; cited from earlier work"}, "[5]": {"test_system": "NIS-expressing F98 gliomas", "conditions": "rats bearing NIS-expressing F98 gliomas; cited from earlier work"}, "[6]": {"conditions": "radionuclide half-life; cited from earlier work"}, "NIS [7]": {"molecular_target": "T1, NIS", "assay": "Perchlorate inhibition of NIS-mediated radioiodide uptake in FaDu cells", "type": "cell-based", "parameters": "The full-length hNIS cDNA was digested from this plasmid and ligated into the pacAd5 CMV K—N pA shuttle vector; expressed in transfected cells", "conditions": "1 mM sodium perchlorate added before radioiodide, Ad-hNIS-transduced FaDu cells", "description": "Radioiodide Uptake and Efflux. Cells (2.5×10^5) were seeded in each well of 12-well plates on day 1. Twelve hours later, 40 multiplicity of infection (MOI; the ratio of infectious viral particles to cells) of adenovirus was added to each well. Twenty-four hours later, 2 μCi of sodium [^125I] iodide (New England Nuclear, North Billerica, Mass.) was added to each well, and the plates were incubated for 1 hour at 37° C. […] Medium was then removed, and cells were washed once with PBS. Plates were then exposed overnight on a phosphor imaging screen, and signal intensity was determined with a Typhoon 9400 imager (Amersham Biosciences, Buckinghamshire, England). Signal intensity was compared with that of standards of known activity. […] To determine the rate of [^125I] iodide efflux from cells, uptake was performed as previously described."}, "[8]": {"conditions": "sixty days after [131I] iodide administration"}}, "note": "Entries after “also recorded” stand apart in the source; their conditions may differ.", "data": [{"compound": "[131I-].[Na+]", "note": "[[^131I] iodide, sodium [^131I] iodide]", "values": [{"measurement": "tumors with complete response (shrunk beyond the limit of detection)", "setting": "[1]; NIS-FaDu established tumors (5 mm), 1 mCi [131I] iodide i.p.", "result": "eight of eight"}, {"measurement": "local adverse effects of radiotherapy", "setting": "[1]; mice given 1 mCi [131I] iodide i.p.", "result": "No local adverse effects"}, {"measurement": "tumors recurred", "setting": "[1]; [8]", "result": "two"}, {"measurement": "tumors remaining in complete remission", "setting": "[1]; [8]", "result": "six"}, {"measurement": "tumor outcome at the delivered dose", "setting": "[2]", "result": "remission of this tumor"}]}, {"compound": "lactoperoxidase [LPO]", "values": [{"measurement": "cell-associated iodide during efflux", "setting": "Ad-NIS infected cells", "result": "significantly longer retention times; also recorded: increased levels of cell-associated iodide"}]}, {"compound": "[O]=[Re](=[O])(=[O])[O-]", "note": "[^188ReO4, Perrhenate]", "values": [{"measurement": "tissue accumulation of 188ReO4-", "setting": "[3]", "result": "thyroid, stomach, and NIS-expressing tumor tissue, also display high affinity"}, {"measurement": "in vitro uptake as compared to iodide", "setting": "NIS [4]", "result": "two- to three-fold higher"}, {"measurement": "survival versus 131I treatment", "setting": "[5]", "result": "increased survival"}, {"measurement": "t1/2", "setting": "[6]", "result": 16.9, "unit": "h"}]}, {"compound": "[Na+].[O-][Cl+3]([O-])([O-])[O-]", "note": "[Perchlorate, sodium perchlorate]", "values": [{"measurement": "effect on NIS-mediated [125I] iodide accumulation", "setting": "NIS [7]", "result": "inhibited iodide accumulation; also recorded: inhibits NIS-mediated [^125I] iodide uptake"}]}]}
